From ChEMBL document CHEMBL4376820, “Homodimeric Tobramycin Adjuvant Repurposes Novobiocin as an Effective Antibacterial Agent against Gram-Negative Bacteria” (J Med Chem, 2019)
Active and inactive are the calls of the source. No cut-off for these calls is given here.

Columns and labels:
[1] = system: Pseudomonas aeruginosa; test: Synergistic antibacterial activity against wild type Pseudomonas aeruginosa PAO1 assessed as potentiation of cefotaxime-induced antibacterial effect incubated for 18 hrs by checkerboard assay; format: functional, organism-based
[2] = system: Pseudomonas aeruginosa; test: Synergistic antibacterial activity against wild type Pseudomonas aeruginosa PAO1 assessed as potentiation of minocycline-induced antibacterial effect incubated for 18 hrs by checkerboard assay; format: functional, organism-based
[3] = system: Pseudomonas aeruginosa; test: Synergistic antibacterial activity against wild type Pseudomonas aeruginosa PAO1 assessed as potentiation of meropenem-induced antibacterial effect incubated for 18 hrs by checkerboard assay; format: functional, organism-based
[4] = system: HEK293; test: Cytotoxicity against human HEK293 cells at 50 uM incubated for 48 hrs by PrestoBlue dye based fluorescence assay; format: cell-based; conditions: hek293, 48 h
[5] = system: HepG2; test: Cytotoxicity against human HepG2 cells at 50 uM incubated for 48 hrs by PrestoBlue dye based fluorescence assay; format: cell-based; conditions: hepg2, 48 h
[6] = system: Erythrocyte; test: Hemolytic activity against porcine erythrocytes assessed as hemoglobin release at 1024 ug/ml incubated for 1 hr by microplate reader analysis; format: ADME, cell-based, Sus scrofa; conditions: pig
[7] = Toxicity in Galleria mellonella larvae assessed as survivability at 200 mg/kg measured every 6 hrs for 72 hrs; format: organism-based; conditions: in vivo
[8] = system: Pseudomonas aeruginosa; test: Synergistic antibacterial activity against wild type Pseudomonas aeruginosa PAO1 assessed as potentiation of rifampicin-induced antibacterial effect incubated for 18 hrs by checkerboard assay; format: functional, organism-based
[9] = system: Pseudomonas aeruginosa; test: Synergistic antibacterial activity against wild type Pseudomonas aeruginosa PAO1 assessed as potentiation of doxycycline-induced antibacterial effect incubated for 18 hrs by checkerboard assay; format: functional, organism-based
[10] = system: Pseudomonas aeruginosa; test: Synergistic antibacterial activity against wild type Pseudomonas aeruginosa PAO1 assessed as potentiation of linezolid-induced antibacterial effect incubated for 18 hrs by checkerboard assay; format: functional, organism-based
[11] = system: Pseudomonas aeruginosa; test: Synergistic antibacterial activity against wild type Pseudomonas aeruginosa PAO1 assessed as potentiation of moxifloxacin-induced antibacterial effect incubated for 18 hrs by checkerboard assay; format: functional, organism-based
[12] = system: Pseudomonas aeruginosa; test: Synergistic antibacterial activity against wild type Pseudomonas aeruginosa PAO1 assessed as potentiation of ciprofloxacin-induced antibacterial effect incubated for 18 hrs by checkerboard assay; format: functional, organism-based
[13] = system: Pseudomonas aeruginosa; test: Synergistic antibacterial activity against wild type Pseudomonas aeruginosa PAO1 assessed as potentiation of levofloxacin-induced antibacterial effect incubated for 18 hrs by checkerboard assay; format: functional, organism-based
[14] = system: Pseudomonas aeruginosa; test: Synergistic antibacterial activity against wild type Pseudomonas aeruginosa PAO1 assessed as potentiation of aztreonam-induced antibacterial effect incubated for 18 hrs by checkerboard assay; format: functional, organism-based
[15] = system: Pseudomonas aeruginosa; test: Synergistic antibacterial activity against wild type Pseudomonas aeruginosa PAO1 assessed as potentiation of ceftazidime-induced antibacterial effect incubated for 18 hrs by checkerboard assay; format: functional, organism-based
[16] = system: Pseudomonas aeruginosa; test: Synergistic antibacterial activity against wild type Pseudomonas aeruginosa PAO1 assessed as potentiation of fosfomycin-induced antibacterial effect incubated for 18 hrs by checkerboard assay; format: functional, organism-based
[17] = system: Pseudomonas aeruginosa; test: Synergistic antibacterial activity against wild type Pseudomonas aeruginosa PAO1 assessed as potentiation of chloramphenicol-induced antibacterial effect incubated for 18 hrs by checkerboard assay; format: functional, organism-based
[18] = system: Pseudomonas aeruginosa; test: Synergistic antibacterial activity against wild type Pseudomonas aeruginosa PAO1 assessed as potentiation of clindamycin-induced antibacterial effect incubated for 18 hrs by checkerboard assay; format: functional, organism-based
[19] = system: Pseudomonas aeruginosa; test: Synergistic antibacterial activity against wild type Pseudomonas aeruginosa PAO1 assessed as potentiation of piperacillin-induced antibacterial effect incubated for 18 hrs by checkerboard assay; format: functional, organism-based
[20] = system: Pseudomonas aeruginosa; test: Synergistic antibacterial activity against wild type Pseudomonas aeruginosa PAO1 assessed as potentiation of novobiocin-induced antibacterial effect incubated for 18 hrs by checkerboard assay; format: functional, organism-based
[21] = system: Pseudomonas aeruginosa; test: Synergistic antibacterial activity against wild type Pseudomonas aeruginosa PAO1 assessed as potentiation of tobramycin-induced antibacterial effect at <= 7.1 uM incubated for 18 hrs by checkerboard assay; format: functional, organism-based
[22] = system: Pseudomonas aeruginosa; test: Synergistic antibacterial activity against wild type Pseudomonas aeruginosa PAO1 assessed as potentiation of vancomycin-induced antibacterial effect at <=7.1 uM incubated for 18 hrs by checkerboard assay; format: functional, organism-based
[23] = system: Pseudomonas aeruginosa; test: Synergistic antibacterial activity against wild type Pseudomonas aeruginosa PAO1 assessed as potentiation of colistin-induced antibacterial effect at <=7.1 uM incubated for 18 hrs by checkerboard assay; format: functional, organism-based
[24] = system: Pseudomonas aeruginosa; test: Antibacterial activity against wild type Pseudomonas aeruginosa PAO1 assessed as fractional inhibitory concentration index incubated for 18 hrs in presence of tobramycin by checkerboard assay; format: functional
[25] = system: Pseudomonas aeruginosa; test: Antibacterial activity against wild type Pseudomonas aeruginosa PAO1 assessed as fractional inhibitory concentration index incubated for 18 hrs in presence of colistin by checkerboard assay; format: functional
[26] = system: Pseudomonas aeruginosa; test: Synergistic antibacterial activity against wild type Pseudomonas aeruginosa PAO1 assessed as potentiation of rifampicin-induced antibacterial effect incubated for 18 hrs by checkerboard assay relative to rifampicin alone; format: functional
[27] = system: Pseudomonas aeruginosa; test: Synergistic antibacterial activity against wild type Pseudomonas aeruginosa PAO1 assessed as potentiation of minocycline-induced antibacterial effect incubated for 18 hrs by checkerboard assay relative to minocycline alone; format: functional
[28] = system: Pseudomonas aeruginosa; test: Synergistic antibacterial activity against wild type Pseudomonas aeruginosa PAO1 assessed as potentiation of cefotaxime-induced antibacterial effect incubated for 18 hrs by checkerboard assay relative to cefotaxime alone; format: functional
[29] = system: Pseudomonas aeruginosa; test: Synergistic antibacterial activity against wild type Pseudomonas aeruginosa PAO1 assessed as potentiation of doxycycline-induced antibacterial effect incubated for 18 hrs by checkerboard assay relative to doxycycline alone; format: functional
[30] = system: Pseudomonas aeruginosa; test: Synergistic antibacterial activity against wild type Pseudomonas aeruginosa PAO1 assessed as potentiation of linezolid-induced antibacterial effect incubated for 18 hrs by checkerboard assay relative to linezolid alone; format: functional
[31] = system: Pseudomonas aeruginosa; test: Synergistic antibacterial activity against wild type Pseudomonas aeruginosa PAO1 assessed as potentiation of meropenem-induced antibacterial effect incubated for 18 hrs by checkerboard assay relative to meropenem alone; format: functional
[32] = system: Pseudomonas aeruginosa; test: Synergistic antibacterial activity against wild type Pseudomonas aeruginosa PAO1 assessed as potentiation of moxifloxacin-induced antibacterial effect incubated for 18 hrs by checkerboard assay relative to moxifloxacin alone; format: functional
[33] = system: Pseudomonas aeruginosa; test: Synergistic antibacterial activity against wild type Pseudomonas aeruginosa PAO1 assessed as potentiation of ciprofloxacin-induced antibacterial effect incubated for 18 hrs by checkerboard assay relative to ciprofloxacin alone; format: functional
[34] = system: Pseudomonas aeruginosa; test: Synergistic antibacterial activity against wild type Pseudomonas aeruginosa PAO1 assessed as potentiation of levofloxacin-induced antibacterial effect incubated for 18 hrs by checkerboard assay relative to levofloxacin alone; format: functional
[35] = system: Pseudomonas aeruginosa; test: Synergistic antibacterial activity against wild type Pseudomonas aeruginosa PAO1 assessed as potentiation of aztreonam-induced antibacterial effect incubated for 18 hrs by checkerboard assay relative to aztreonam alone; format: functional
[36] = system: Pseudomonas aeruginosa; test: Synergistic antibacterial activity against wild type Pseudomonas aeruginosa PAO1 assessed as potentiation of ceftazidime-induced antibacterial effect incubated for 18 hrs by checkerboard assay relative to ceftazidime alone; format: functional
[37] = system: Pseudomonas aeruginosa; test: Synergistic antibacterial activity against wild type Pseudomonas aeruginosa PAO1 assessed as potentiation of fosfomycin-induced antibacterial effect incubated for 18 hrs by checkerboard assay relative to fosfomycin alone; format: functional
[38] = system: Pseudomonas aeruginosa; test: Synergistic antibacterial activity against wild type Pseudomonas aeruginosa PAO1 assessed as potentiation of chloramphenicol-induced antibacterial effect incubated for 18 hrs by checkerboard assay relative to chloramphenicol alone; format: functional
[39] = system: Pseudomonas aeruginosa; test: Synergistic antibacterial activity against wild type Pseudomonas aeruginosa PAO1 assessed as potentiation of clindamycin-induced antibacterial effect incubated for 18 hrs by checkerboard assay relative to clindamycin alone; format: functional
[40] = system: Pseudomonas aeruginosa; test: Synergistic antibacterial activity against wild type Pseudomonas aeruginosa PAO1 assessed as potentiation of novobiocin-induced antibacterial effect incubated for 18 hrs by checkerboard assay relative to novobiocin alone; format: functional
[41] = system: Pseudomonas aeruginosa; test: Synergistic antibacterial activity against wild type Pseudomonas aeruginosa PAO1 assessed as potentiation of piperacillin-induced antibacterial effect incubated for 18 hrs by checkerboard assay relative to piperacillin alone; format: functional
[42] = system: Acinetobacter baumannii; test: Antibacterial activity against novobiocin-resistant Acinetobacter baumannii ATCC 17978 mutant generated from seven serial passages by checkerboard assay; format: functional
[43] = system: Acinetobacter baumannii; test: Antibacterial activity against colistin-resistant Acinetobacter baumannii ATCC 17978 mutant generated from seven serial passages by checkerboard assay; format: functional
[44] = system: Acinetobacter baumannii; test: Antibacterial activity against novobiocin and test compound-resistant Acinetobacter baumannii ATCC 17978 mutant generated from seven serial passages in presence of novobiocin by checkerboard assay; format: functional
[45] = system: Acinetobacter baumannii; test: Antibacterial activity against wild type Acinetobacter baumannii ATCC 17978 by checkerboard assay; format: functional
[46] = system: Pseudomonas aeruginosa; test: Potentiation of novobiocin-induced antibacterial activity against wild type Pseudomonas aeruginosa PAO1 incubated for 18 hrs by CLSI protocol based assay; format: functional, organism-based

NC[C@H]1O[C@H](O[C@H]2[C@H](OCCCCCCn3cc(CCCCO[C@@H]4[C@@H](O[C@H]5O[C@H](CO)[C@@H](O)[C@H](N)[C@H]5O)[C@H](N)C[C@H](N)[C@H]4O[C@H]4O[C@H](CN)[C@@H](O)C[C@H]4N)nn3)[C@@H](O[C@H]3O[C@H](CO)[C@@H](O)[C@H](N)[C@H]3O)[C@H](N)C[C@@H]2N)[C@H](N)C[C@@H]1O.O=C(O)C(F)(F)F.O=C(O)C(F)(F)F.O=C(O)C(F)(F)F.O=C(O)C(F)(F)F.O=C(O)C(F)(F)F.O=C(O)C(F)(F)F.O=C(O)C(F)(F)F.O=C(O)C(F)(F)F.O=C(O)C(F)(F)F.O=C(O)C(F)(F)F
Activity [1]: Dose-dependent effect | Activity [2]: Dose-dependent effect | Activity [3]: Dose-dependent effect | Activity [4]: Non-Toxic | Activity [5]: Non-Toxic | Activity [6]: Non-Toxic | Activity [7]: Non-Toxic | Activity [8]: Dose-dependent effect | Activity [9]: Dose-dependent effect | Activity [10]: Dose-dependent effect | Activity [11]: Dose-dependent effect | Activity [12]: Dose-dependent effect | Activity [13]: Dose-dependent effect | Activity [14]: Dose-dependent effect | Activity [15]: Dose-dependent effect | Activity [16]: Dose-dependent effect | Activity [17]: Dose-dependent effect | Activity [18]: Dose-dependent effect | Activity [19]: Dose-dependent effect | Activity [20]: Dose-dependent effect | Activity [21]: inactive | Activity [22]: inactive | Activity [23]: inactive | fractional inhibitory concentration index (FICI) [24]: >4 | fractional inhibitory concentration index (FICI) [25]: >4 | fold change (FC) [26]: 4 - 128 | fold change (FC) [27]: 4 - 128 | fold change (FC) [28]: 4 - 128 | fold change (FC) [29]: 4 - 128 | fold change (FC) [30]: 4 - 128 | fold change (FC) [31]: 4 - 128 | fold change (FC) [32]: 4 - 128 | fold change (FC) [33]: 4 - 128 | fold change (FC) [34]: 4 - 128 | fold change (FC) [35]: 4 - 128 | fold change (FC) [36]: 4 - 128 | fold change (FC) [37]: 4 - 128 | fold change (FC) [38]: 4 - 128 | fold change (FC) [39]: 4 - 128 | fold change (FC) [40]: 4 - 128 | fold change (FC) [41]: 4 - 128

CC(C)(O/N=C(\C(=O)N[C@@H]1C(=O)N2C(C(=O)[O-])=C(C[n+]3ccccc3)CS[C@H]12)c1csc(N)n1)C(=O)O [CEFTAZIDIME]
MIC [42]: 32 µg/mL | MIC [43]: 1 µg/mL | MIC [44]: 16 µg/mL | MIC [45]: 16 µg/mL

CN(C)c1ccc(O)c2c1C[C@H]1C[C@H]3[C@H](N(C)C)C(O)=C(C(N)=O)C(=O)[C@@]3(O)C(O)=C1C2=O [MINOCYCLINE]
MIC [42]: 0.5 µg/mL | MIC [43]: < 0.031 µg/mL | MIC [44]: 0.125 µg/mL | MIC [45]: 0.125 µg/mL

CO[C@H]1/C=C/O[C@@]2(C)Oc3c(C)c(O)c4c(O)c(c(/C=N/N5CCN(C)CC5)c(O)c4c3C2=O)NC(=O)/C(C)=C\C=C\[C@H](C)[C@H](O)[C@@H](C)[C@@H](O)[C@@H](C)[C@H](OC(C)=O)[C@@H]1C [RIFAMPIN]
MIC [42]: 2 µg/mL | MIC [43]: < 0.031 µg/mL | MIC [44]: 2 µg/mL | MIC [45]: 2 µg/mL

O=C(N[C@H](CO)[C@H](O)c1ccc([N+](=O)[O-])cc1)C(Cl)Cl [CHLORAMPHENICOL]
MIC [42]: 32 µg/mL | MIC [43]: 8 µg/mL | MIC [44]: 64 µg/mL | MIC [45]: 64 µg/mL

C#CCCCCO[C@@H]1[C@@H](O[C@H]2O[C@H](CO)[C@@H](O)[C@H](N)[C@H]2O)[C@H](N)C[C@H](N)[C@H]1O[C@H]1O[C@H](CN)[C@@H](O)C[C@H]1N
Activity [46]: inactive

O=C(O)c1cn(C2CC2)c2cc(N3CCNCC3)c(F)cc2c1=O [CIPROFLOXACIN]
MIC [45]: 1 µg/mL

[N-]=[N+]=NCCCCO[C@@H]1[C@@H](O[C@H]2O[C@H](CO)[C@@H](O)[C@H](N)[C@H]2O)[C@H](N)C[C@H](N)[C@H]1O[C@H]1O[C@H](CN)[C@@H](O)C[C@H]1N
Activity [46]: inactive

CC(C)(C)OC(=O)NC[C@H]1O[C@H](O[C@H]2[C@H](OCCCCc3cn(CCCCO[C@@H]4[C@@H](O[C@H]5O[C@H](CO)[C@@H](O)[C@H](NC(=O)OC(C)(C)C)[C@H]5O)[C@H](NC(=O)OC(C)(C)C)C[C@H](NC(=O)OC(C)(C)C)[C@H]4O[C@H]4O[C@H](CNC(=O)OC(C)(C)C)[C@@H](O)C[C@H]4NC(=O)OC(C)(C)C)nn3)[C@@H](O[C@H]3O[C@H](CO)[C@@H](O)[C@H](NC(=O)OC(C)(C)C)[C@H]3O)[C@H](NC(=O)OC(C)(C)C)C[C@@H]2NC(=O)OC(C)(C)C)[C@H](NC(=O)OC(C)(C)C)C[C@@H]1O
Activity [46]: inactive
